Assay results taken from article PMC7830597, “Derivatives of Tenuazonic Acid as Potential New Multi-Target Anti-Alzheimer’s Disease Agents” (Biomolecules, 2021).

How the values were obtained:
[1] = design: method as in PMID 30158491; details: DPPH assay; cited from earlier work
Aβ1-42 [2] = molecular target: T1, Aβ1-42 (Homo sapiens, UniProt P05067); design: method as in PMID 30158491; details: Cinhibitor = 100 µM; cited from earlier work
T1 construct: Amyloid β peptide (Aβ1-42) was purchased from GeneCust as a lyophilised powder; purchased GeneCust
T1 sequence (P05067 672-713 limits assumed): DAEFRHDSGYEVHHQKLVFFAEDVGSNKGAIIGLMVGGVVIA

Aβ1-42 [3] = molecular target: T1, Aβ1-42; experiment: biochemical; details: Aβ1-42; inhibitor 40 µM; SEM < 10%; read-out: Inhib. Aβ Aggreg. Self-Induced
Method: The anti-amyloidogenic activity of all the compounds was also evaluated in vitro, in the absence and in presence of Cu(II), by measuring the fluorescence emission of Thioflavin T (ThT).
The spectrofluorimetric method, based on the fluorescence emission of thioflavin T (ThT), was used to study the Aβ1-42 aggregation inhibition. Firstly, Aβ1-42 was dissolved in HFIP (1,1,1,3,3,3-Hexafluoro-2-propanol) and kept overnight at room temperature in order to obtain a dry film. […] The ligand solutions were prepared with MeOH (1mg/mL) and further with phosphate buffer. […] As a control, a solution of 30 μL of phosphate buffer and 30 μL of Aβ1-42 was used to observe the aggregation without any inhibition, while the ligand assay solutions were composed of 20 μL of phosphate buffer, 30 μL of Aβ1-42 and 10 μL of ligand. The Cu-induced aggregation studies were similarly conducted, adding 10 μL of CuCl2 to induce the fibril aggregation. Each experiment was composed of an assay and a blank sample, where the blank sample lacks Aβ1-42, to monitor the effect of the compounds on the fluorescence emission. The samples were left to incubate in a CERTOMAT WR water bath for 24 h at 37 °C with shaking. After 24 h, a Glycine-NaOH buffer (pH = 8.5) containing ThT were added to each sample in a microplate. The fluorescence signal was monitored at 446 nm (λexc) and 486 nm (λem) with a Varian Cary Eclipse fluorimeter. Amyloid β peptide (Aβ1-42) was purchased from GeneCust as a lyophilised powder and stored at −20 °C [12, 13, 14].

[4] = design: method as in literature; details: value reported in the literature; ref literature; cited from earlier work
Aβ1-42 [5] = molecular target: T1, Aβ1-42; experiment: Inhibition of Cu2+-induced Aβ1-42 aggregation, thioflavin T fluorescence; format: biochemical; details: inhibitor 40 µM, copper 40 µM
Method: The anti-amyloidogenic activity of all the compounds was also evaluated in vitro, in the absence and in presence of Cu(II), by measuring the fluorescence emission of Thioflavin T (ThT). […] The Aβ self-aggregation inhibitory activity shown by all compounds is higher than that of parent compound TA, with the exception of compound 2 (probably due to solubility issues at the experimental conditions of the assays). The fact that the reference value previously reported by us for TA (50 ± 8%) was obtained for quite different conditions, including a much higher inhibitor concentration (100 μM instead of 40 μM) is noteworthy. […] This may be due to different electronic contributions between the ketone and the ester functions. Therefore, the ester derivatives seem to be better chelators compared to TA.
The spectrofluorimetric method, based on the fluorescence emission of thioflavin T (ThT), was used to study the Aβ1-42 aggregation inhibition. Firstly, Aβ1-42 was dissolved in HFIP (1,1,1,3,3,3-Hexafluoro-2-propanol) and kept overnight at room temperature in order to obtain a dry film. Then, the film was re-dissolved in CH3CN-Na2CO3 (300μM)/NaOH (250μM) (48.3/48.3/3.4 mL v/v/v) and then phosphate buffer (pH = 8) was added. The ligand solutions were prepared with MeOH (1mg/mL) and further with phosphate buffer. For the inhibition studies of copper-induced Aβ aggregation, a solution of CuCl2 240 μM was used. As a control, a solution of 30 μL of phosphate buffer and 30 μL of Aβ1-42 was used to observe the aggregation without any inhibition, while the ligand assay solutions were composed of 20 μL of phosphate buffer, 30 μL of Aβ1-42 and 10 μL of ligand. The Cu-induced aggregation studies were similarly conducted, adding 10 μL of CuCl2 to induce the fibril aggregation. Each experiment was composed of an assay and a blank sample, where the blank sample lacks Aβ1-42, to monitor the effect of the compounds on the fluorescence emission. The samples were left to incubate in a CERTOMAT WR water bath for 24 h at 37 °C with shaking. After 24 h, a Glycine-NaOH buffer (pH = 8.5) containing ThT were added to each sample in a microplate. The fluorescence signal was monitored at 446 nm (λexc) and 486 nm (λem) with a Varian Cary Eclipse fluorimeter. Amyloid β peptide (Aβ1-42) was purchased from GeneCust as a lyophilised powder and stored at −20 °C [12, 13, 14].

[6] = molecular target: AChE of electroforus electricus (electric eel) (Electrophorus electricus, UniProt O42275); experiment: biochemical; details: eeAChEi IC50, AChE from electric eel; mean of three independent experiments ± SEM
AChE of electroforus electricus (electric eel), sequence (O42275 24-633): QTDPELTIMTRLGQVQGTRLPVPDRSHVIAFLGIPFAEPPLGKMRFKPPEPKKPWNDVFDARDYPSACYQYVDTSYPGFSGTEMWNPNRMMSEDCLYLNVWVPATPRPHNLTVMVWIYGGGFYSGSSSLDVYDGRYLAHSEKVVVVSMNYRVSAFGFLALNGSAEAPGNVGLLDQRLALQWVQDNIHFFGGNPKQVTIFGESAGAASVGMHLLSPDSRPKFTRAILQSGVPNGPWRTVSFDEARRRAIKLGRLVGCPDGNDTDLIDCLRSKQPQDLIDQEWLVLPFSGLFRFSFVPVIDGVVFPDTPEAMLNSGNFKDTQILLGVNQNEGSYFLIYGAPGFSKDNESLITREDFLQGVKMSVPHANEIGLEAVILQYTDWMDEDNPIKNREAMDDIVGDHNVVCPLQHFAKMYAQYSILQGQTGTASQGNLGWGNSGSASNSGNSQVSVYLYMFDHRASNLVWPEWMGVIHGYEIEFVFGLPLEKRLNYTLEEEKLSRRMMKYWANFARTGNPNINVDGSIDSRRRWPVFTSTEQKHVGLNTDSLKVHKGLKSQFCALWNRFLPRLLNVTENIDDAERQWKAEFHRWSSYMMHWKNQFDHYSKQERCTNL
Method: All new racemic compounds were tested as acetylcholinesterase inhibitors via an in vitro assay, following a modification of Ellman’s method in three independent experiments, using tacrine as a reference compound. […] Enzyme inhibition assays were performed using an adaptation of Ellman’s method. The readings were made in a spectrophotometer Perkin-Elmer Lambda 35 UV-Vis. Enzyme activity is measured by following the increase in yellow color produced from thiocholine when it reacts with dithiobisnitrobenzoate ion (DTNB). DTNB solution was obtained dissolving the reagent in HEPES buffer with salts, namely NaCl (50 mM) and MgCl2 (20 mM), obtaining a 3 mM solution. The enzyme AChE of electroforus electricus (electric eel) stock (500 U) was dissolved in TRIS 50 mM, pH 8.0, being posteriorly diluted to assay concentrations (5 U), obtaining an aliquot of 1 mL. The enzyme substrate used was acetylthiocholine iodide (AThCh, 16 mM), which was prepared with deionized water. The compounds tested were diluted in MeOH or DMSO (1 mg/mL, 2–7 × 10^−3 M), with further dilution, and five different concentrations were used for each compound, obtaining different percentages of AChE inhibition. The assay consists in the addition of HEPES (50 mM, pH = 8), inhibitor, AChE and MeOH in a 1 mL cuvette. The mixture was left to incubate for 15 min and, after that, AThCh and DTNB were added. The enzymatic reaction was followed through the measurements of absorbencies at 405 nm (Perkin Elmer Lambda 35 spectrophotometer equipped with a temperature programmer PTP 1þ1 Peltier System, using thermostated (T = 25.0 ± 0.1 °C) 1 cm path length cells) during 5 min. A blank solution containing all the components except the enzyme, that was substituted for equal volume of HEPES, was used. A control reaction was used using MeOH instead of the new compounds and was considered the reaction corresponding to 100% enzymatic activity. Each assay was performed in quintupled.

Q: What does the source list for CC[C@H](C)[C@@H]1NC(=O)C(C(C)=O)=C1O (stereo in doubt) [Tenuazonic acid]?
A: Antioxidant Activity EC50 [1]: - 2.6 ± 0.2 [19] µmol/µmol of DPPH; Inhib. Aβ Aggreg. Self-Induced (Aβ1-42 [2]): 50 ± 8%; inhibition at 40 µM (Aβ1-42 [3]): 25.2%; log K (protonation constant) [4]: 3.523; Inhib. Aβ Aggreg. Cu2+-Induced (Aβ1-42 [5]): did not demonstrate a significant difference of effect; IC50 [6]: 65 ± 4 µM
